Data: the C3SDB collision cross section collection
Where a name gives a salt, the structure may show the parent alone.

Settings: instrument: TW, calibrated with polyalanine and drug standards

Row | SMILES | collision cross section (N2) ([M+H]+) [Å²] | also measured
1 | C[C@H]1C(=O)O[C@@H]2CCN3CC=C(COC(=O)[C@](C)(O)[C@]1(C)O)[C@H]23 [MONOCROTALINE] | 172.9 | –
2 | O=c1c(O)c(-c2ccc(O)cc2O)oc2cc(O)cc(O)c12 [MORIN] | 162.7 | –
3 | COc1ccc2c(c1)O[C@@H]1COc3cc(OC)c(OC)cc3[C@@H]1C2=O [MUNDOSERONE] | 175.1 | –
4 | COc1c(-c2coc3cc4c(cc3c2=O)CC(OC(C)=O)C(C)(C)O4)ccc2c1C=CC(C)(C)O2 (configuration not stated) [MUNDULONE ACETATE] | 222.7 | –
5 | COc1c(-c2coc3cc4c(cc3c2=O)CC(O)C(C)(C)O4)ccc2c1C=CC(C)(C)O2 (configuration not stated) [MUNDULONE] | 210.9 | –
6 | C/C(=C\C(=O)OCCCCCCCCC(=O)O)C[C@@H]1OC[C@H](C[C@@H]2O[C@H]2[C@@H](C)[C@H](C)O)[C@@H](O)[C@H]1O [MUPIROCIN] | 214.8 | –
7 | O=C(O)c1ccccc1Nc1ccccc1 [N-PHENYLANTHRANILIC ACID] | 144.5 | –
8 | COc1ccc2cc(CCC(C)=O)ccc2c1 [NABUMETONE] | 148 | –
9 | NC(=O)c1ccc[n+]([C@@H]2O[C@H](COP(=O)([O-])OP(=O)(O)OC[C@H]3O[C@@H](n4cnc5c(N)ncnc54)[C@H](O)[C@@H]3O)[C@@H](O)[C@H]2O)c1 [NADIDE] | 227 | –
10 | COc1ccc2cc([C@H](C)CO)ccc2c1 [NAPROXOL] | 140 | –
11 | O=C1CC(c2ccc(O)cc2)Oc2cc(O)cc(O)c21 (configuration not stated) [NARINGENIN] | 160.6 | –
12 | C[C@@H]1O[C@@H](O[C@H]2[C@H](Oc3cc(O)c4c(c3)O[C@H](c3ccc(O)cc3)CC4=O)O[C@H](CO)[C@@H](O)[C@@H]2O)[C@H](O)[C@H](O)[C@H]1O [NARINGIN] | – | collision cross section (N2) ([M+Na]+): 233.5 Å²
13 | CC(C)C1CCC(C(=O)N[C@H](Cc2ccccc2)C(=O)O)CC1 (some centres not stated) [NATEGLINIDE] | 178.6 | –
14 | O=C(O)c1cccnc1 [NIACIN] | 120.3 | –
15 | O=C(CCNNC(=O)c1ccncc1)NCc1ccccc1 [NIALAMIDE] | 174.3 | –
16 | CO[C@]12C[C@@H](COC(=O)c3cncc(Br)c3)CN(C)[C@@H]1Cc1cn(C)c3cccc2c13 [NICERGOLINE] | 213.8 | –
17 | COC(=O)C1=C(C)NC(C)=C(C(=O)OC)C1c1ccccc1[N+](=O)[O-] [NIFEDIPINE] | – | collision cross section (N2) ([M+H-H2O]+): 169.4 Å²
18 | O=C(O)c1cccnc1Nc1cccc(C(F)(F)F)c1 [NIFLUMIC ACID] | 159.4 | –
19 | O=C(O)C1CCCNC1 (configuration not stated) [NIPECOTIC ACID] | 124.6 | –
20 | COC(=O)C1=C(C)NC(C)=C(C(=O)OCC(C)C)C1c1ccccc1[N+](=O)[O-] (configuration not stated) [NISOLDIPINE] | 187.2 | –
21 | CN/C(=C\[N+](=O)[O-])NCCSCc1csc(CN(C)C)n1 [NIZATIDINE] | 169.1 | –
22 | COC(=O)Nc1nc2ccc(C(=O)c3cccs3)cc2[nH]1 [NOCODAZOLE] | 168.7 | –
23 | C#C[C@]1(O)CC[C@H]2[C@@H]3CCC4=C(CCC(=O)C4)[C@H]3CC[C@@]21C [NORETHYNODREL] | 174.6 | –
24 | c1ccc2c(c1)[nH]c1cnccc12 [NORHARMAN] | 132.2 | –

Row | SMILES | collision cross section (N2) ([M+H]+) [Å²] | also measured
25 | N[C@@H](COCc1ccccc1)C(=O)O [O-BENZYL-l-SERINE] | 142.5 | –
26 | COC1=CC(=O)C(O)=C/C1=C\C=C\c1ccccc1 [OBTUSAQUINONE] | 155.1 | –
27 | CC(C)CCCC(C)N (configuration not stated) [OCTODRINE] | 134.7 | –
28 | CCCc1nc(C(C)(C)O)c(C(=O)OCc2oc(=O)oc2C)n1Cc1ccc(-c2ccccc2-c2nn[nH]n2)cc1 [OLMESARTAN MEDOXOMIL] | 225 | –
29 | CC(C)=CCc1c2c(c3occ(-c4ccc(O)cc4)c(=O)c3c1O)C=CC(C)(C)O2 [OSAJIN] | 201.4 | –
30 | CCOC(=O)C1=C[C@@H](OC(CC)CC)[C@H](NC(C)=O)[C@@H](N)C1 [OSELTAMIVIR] | 180.7 | –
31 | COC[C@]12CN(C=O)C3[C@@H]4[C@H](OC)C1[C@]3(C1CC3(O)C(OC)C(O)C4(OC(C)=O)C1C3OC(=O)c1ccccc1)[C@@H](OC)C[C@H]2O (some centres not stated) [OXONITINE] | 236.2 | –
32 | COc1ccc(C(=O)c2ccccc2)c(O)c1 [OXYBENZONE] | 146.5 | –
33 | CCCCC1C(=O)N(c2ccccc2)N(c2ccc(O)cc2)C1=O (configuration not stated) [OXYPHENBUTAZONE] | 177.2 | –
34 | COc1ccc(C(C)=O)c(O)c1 [PAEONOL] | 124.9 | –
35 | CC(C)(CO)[C@@H](O)C(=O)NCCC(=O)NCCSSCCNC(=O)CCNC(=O)[C@H](O)C(C)(C)CO [PANTETHINE] | 222.5 | –
36 | CC(C)(CO)[C@@H](O)C(=O)NCCC(=O)[O-] [PANTOTHENIC ACID(d) Na salt] | 146.7 | –
37 | C=C1C(=O)O[C@@H]2[C@H]3O[C@]3(C)CC/C=C(\C)CC[C@@H]12 [PARTHENOLIDE] | – | collision cross section (N2) ([M+H-H2O]+): 150.7 Å²
38 | O=C(O)CN(CCN(CC(=O)O)CC(=O)O)CCN(CC(=O)O)CC(=O)O [PENTETIC ACID] | 180.2 | –
39 | CC(=O)CCCCn1c(=O)c2c(ncn2C)n(C)c1=O [PENTOXIFYLLINE] | 158.5 | –
40 | C=C(C)[C@H]1CC=C(C(=O)O)CC1 [PERILLIC ACID (-)] | 124.9 | –
41 | OCCN1CCN(CCCN2c3ccccc3Sc3ccc(Cl)cc32)CC1 [PERPHENAZINE] | 192 | –
42 | CC(=O)OCC(OC(C)=O)C(OC(C)=O)C(OC(C)=O)C(OC(C)=O)C(COC(C)=O)OC(C)=O (configuration not stated) [PERSEITOL HEPTAACETATE] | – | collision cross section (N2) ([M+Na]+): 205.7 Å²
43 | CC(C)=CCc1c(O)cc2oc(C)cc(=O)c2c1O [PEUCENIN] | 154.2 | –
44 | CC(=O)c1c(O)cc(O)cc1O [PHLORACETOPHENONE] | 129 | –
45 | COc1cc([C@@H]2c3cc4c(cc3[C@H](O)[C@H]3COC(=O)[C@@H]23)OCO4)cc(OC)c1OC [PICROPODOPHYLLIN] | – | collision cross section (N2) ([M+H-H2O]+): 190.9 Å²
46 | O=c1[nH]c2ccccc2n1C1CCN(CCCC(c2ccc(F)cc2)c2ccc(F)cc2)CC1 [PIMOZIDE] | 212.6 | –
47 | CCn1cc(C(=O)O)c(=O)c2cnc(N3CCNCC3)nc21 [PIPEMIDIC ACID] | 171 | –
